Test results: patent US9169315B2, “Heparin cofactor II fragments with anti-inflammatory and anti-coagulant activity” (XIMMUNE AB, priority 2009, dated 2015)
No end group written: not given here.

What was measured:
[1] = Liposome leakage assay (carboxyfluorescein release); conditions: for CF release from liposomes: 10 mM Tris-buffer
From the text: The liposomes investigated were anionic (DOPE/DOPG 75/25 mol/mol). DOPG (1,2-Dioleoyl-sn-Glycero-3-Phosphoglycerol, monosodium salt), and DOPE (1,2-dioleoyl-sn-Glycero-3-phoshoetanolamine) were all from Avanti Polar Lipids (Alabaster, USA) and of >99% purity. Due to the long, symmetric and unsaturated acyl chains of these phospholipids, several methodological advantages are reached. In particular, membrane cohesion is good, which facilitates very stable, unilamellar, and largely defect-free liposomes (observed from cryo-TEM) and well defined supported lipid bilayers (observed by ellipsometry and AFM), allowing detailed values on leakage and adsorption density to be obtained. The lipid mixtures were dissolved in chloroform, after which solvent was removed by evaporation under vacuum overnight. Subsequently, 10 mM Tris buffer, pH 7.4, was added together with 0.1 M carboxyfluorescein (CF) (Sigma, St. Louis, USA). After hydration, the lipid mixture was subjected to eight freeze-thaw cycles consisting of freezing in liquid nitrogen and heating to 60° C. Unilamellar liposomes of about Ø140 nm were generated by multiple extrusions through polycarbonate filters (pore size 100 nm) mounted in a LipoFast miniextruder (Avestin, Ottawa, Canada) at 22° C. Untrapped CF was removed by two subsequent gel filtrations (Sephadex G-50, GE Healthcare, Uppsala, Sweden) at 22° C., with Tris buffer as eluent. CF release from the liposomes was determined by monitoring the emitted fluorescence at 520 nm from a liposome dispersion ([…] in 10 mM Tris, pH 7.4). An absolute leakage scale was obtained by disrupting the liposomes at the end of each experiment through addition of 0.8 mM Triton X-100 (Sigma-Aldrich, St. Louis, USA). A SPEX-fluorolog 1650 0.22-m double spectrometer (SPEX Industries, Edison, USA) was used for the liposome leakage assay in Tris buffer in the absence and presence of liposomes under conditions described above. Measurements were performed in triplicate at 37° C.
The liposomes investigated were either zwitterionic (DOPC/cholesterol 60/40 mol/mol or DOPC without cholesterol) or anionic (DOPE/DOPG 75/25 mol/mol). DOPG (1,2-Dioleoyl-sn-Glycero-3-Phosphoglycerol, monosodium salt), DOPC (1,2-dioleoyl-sn-Glycero-3-phoshocholine), and DOPE (1,2-dioleoyl-sn-Glycero-3-phoshoetanolamine) were all from Avanti Polar Lipids (Alabaster, USA) and of >99% purity, while cholesterol (>99% purity), was from Sigma-Aldrich (St. Louis, USA). Due to the long, symmetric and unsaturated acyl chains of these phospholipids, several methodological advantages are reached. […] CF release from the liposomes was determined by monitoring the emitted fluorescence at 520 nm from a liposome dispersion (10 mM lipid in 10 mM Tris, pH 7.4). […]

S. pyogenes = type: cell-based
Experimental: MIC assay was carried out by a microtiter broth dilution method as previously described in the NCSLA guidelines (Wiegand, I., Hilpert, K. & Hancock, R. E. Agar and broth dilution methods to determine the minimal inhibitory concentration (MIC) of antimicrobial substances. Nat Protoc 3, 163-175 (2008)). In brief, fresh overnight colonies were suspended to a turbidity of 0.5 units and further diluted in Mueller-Hinton broth (Becton Dickinson). For determination of MIC, peptides were dissolved in water at concentration 10 times higher than the required range by serial dilutions from a stock solution. Ten μl of each concentration was added to each corresponding well of a 96-well microtiter plate (polypropylene, Costar Corp.) and 90 μl of bacteria (1×10^5) in MH medium added. The plate was incubated at 37° C. for 16-18 h. MIC was taken as the lowest concentration where no visual growth of bacteria was detected.

KYEITTIHNLFRKLTHRLFRR [KYE21]
Time within which ~80% of the maximal CF release occurred [1]: 5 to 10 min
CF release from liposomes [1]: caused CF release

NLFRKLTHRLFRRNFGYTLR [NLF20]
MIC (S. pyogenes): 2.5 µM
Time within which ~80% of the maximal CF release occurred [1]: 5 to 10 min
CF release from liposomes [1]: caused CF release

KYEITTIHNLFRKLTHRLFRRNFGYTLR [KYE28]
MIC (S. pyogenes): 10 µM
